How the values were obtained:
Experiment in all cases: relative viability (nuclei count vs DMSO), 5 days (fraction); higher = more cells survive
NCI-H1299 = system: NCI-H1299
Procedure, shortened: (§1)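 A single step with final 0.05% Triton X-100, 1% formaldehyde and 1 ug/ml Hoechst fixed the cells and stained nuclei 5 days after treatment. Lung cancer cell lines in 1536-well plates had been treated by pin tool the day after seeding with one drug alone or a fixed anchor-drug dose plus five library-drug doses (not always all listed) in √10 steps, and nuclei were counted on 4× images. Relative viability is the ratio of nuclei in treated wells to nuclei in vehicle wells, taken as the median of duplicate plates.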

NCI-H596 = system: NCI-H596
Procedure, shortened: as §1

NCI-H1993 = system: NCI-H1993
Procedure, shortened: as §1

EBC-1 = system: EBC-1
Procedure, shortened: as §1

LCLC-97TM1 = system: LCLC-97TM1
Procedure, shortened: as §1

NCI-H1355 = system: NCI-H1355
Procedure, shortened: as §1

IA-LM = system: IA-LM
Procedure, shortened: as §1

NCI-H322M = system: NCI-H322M
Procedure, shortened: as §1

Calu-6 = system: Calu-6
Procedure, shortened: as §1

A549 = system: A549
Procedure, shortened: as §1

UMC-11 = system: UMC-11
Procedure, shortened: as §1

NCI-H1703 = system: NCI-H1703
Procedure, shortened: as §1

NCI-H23 = system: NCI-H23
Procedure, shortened: as §1

Nc1ccn([C@@H]2O[C@H](CO)[C@@H](O)[C@@H]2O)c(=O)n1 [Cytarabine] + Cc1nc(NC(=O)N2CCC[C@H]2C(N)=O)sc1-c1ccnc(C(C)(C)C(F)(F)F)c1 [Alpelisib] (partner 2 µM)
relative viability (NCI-H1299; first compound 0.005 µM): 1.13 | relative viability (NCI-H1299; first compound 0.01581 µM): 1.21 | relative viability (NCI-H1299; first compound 0.05 µM): 1.13 | relative viability (NCI-H1299; first compound 0.1581 µM): 1 | relative viability (NCI-H1299; first compound 0.5 µM): 1.06 | relative viability (NCI-H596; first compound 0.005 µM): 0.5 | relative viability (NCI-H596; first compound 0.01581 µM): 0.567 | relative viability (NCI-H596; first compound 0.05 µM): 0.433 | relative viability (NCI-H596; first compound 0.1581 µM): 0.418 | relative viability (NCI-H596; first compound 0.5 µM): 0.315 | relative viability (NCI-H1993; first compound 0.005 µM): 0.691 | relative viability (NCI-H1993; first compound 0.01581 µM): 0.636 | relative viability (NCI-H1993; first compound 0.05 µM): 0.642 | relative viability (NCI-H1993; first compound 0.1581 µM): 0.501 | relative viability (NCI-H1993; first compound 0.5 µM): 0.517 | relative viability (EBC-1; first compound 0.005 µM): 0.694 | relative viability (EBC-1; first compound 0.01581 µM): 0.64 | relative viability (EBC-1; first compound 0.05 µM): 0.676 | relative viability (EBC-1; first compound 0.1581 µM): 0.439 | relative viability (EBC-1; first compound 0.5 µM): 0.248 | relative viability (LCLC-97TM1; first compound 0.005 µM): 0.235 | relative viability (LCLC-97TM1; first compound 0.01581 µM): 0.124 | relative viability (LCLC-97TM1; first compound 0.1581 µM): 0.101 | relative viability (LCLC-97TM1; first compound 0.5 µM): 0.0953 | relative viability (NCI-H1355; first compound 0.005 µM): 0.825 | relative viability (NCI-H1355; first compound 0.01581 µM): 0.758 | relative viability (NCI-H1355; first compound 0.05 µM): 0.756 | relative viability (NCI-H1355; first compound 0.1581 µM): 0.363 | relative viability (NCI-H1355; first compound 0.5 µM): 0.264 | relative viability (IA-LM; first compound 0.005 µM): 0.784 | relative viability (IA-LM; first compound 0.01581 µM): 0.591 | relative viability (IA-LM; first compound 0.05 µM): 0.701 | relative viability (IA-LM; first compound 0.1581 µM): 0.259 | relative viability (IA-LM; first compound 0.5 µM): 0.114 | relative viability (NCI-H322M; first compound 0.005 µM): 0.68 | relative viability (NCI-H322M; first compound 0.01581 µM): 0.607 | relative viability (NCI-H322M; first compound 0.05 µM): 0.529 | relative viability (NCI-H322M; first compound 0.1581 µM): 0.283 | relative viability (NCI-H322M; first compound 0.5 µM): 0.291 | relative viability (Calu-6; first compound 0.005 µM): 0.925 | relative viability (Calu-6; first compound 0.01581 µM): 0.826 | relative viability (Calu-6; first compound 0.05 µM): 0.79 | relative viability (Calu-6; first compound 0.1581 µM): 0.483 | relative viability (Calu-6; first compound 0.5 µM): 0.288 | relative viability (A549; first compound 0.005 µM): 0.596 | relative viability (A549; first compound 0.01581 µM): 0.479 | relative viability (A549; first compound 0.05 µM): 0.399 | relative viability (A549; first compound 0.1581 µM): 0.0482 | relative viability (A549; first compound 0.5 µM): 0.0328 | relative viability (UMC-11; first compound 0.005 µM): 0.496 | relative viability (UMC-11; first compound 0.01581 µM): 0.463 | relative viability (UMC-11; first compound 0.05 µM): 0.375 | relative viability (UMC-11; first compound 0.1581 µM): 0.192 | relative viability (UMC-11; first compound 0.5 µM): 0.18 | relative viability (NCI-H1703; first compound 0.005 µM): 0.294 | relative viability (NCI-H1703; first compound 0.01581 µM): 0.22 | relative viability (NCI-H1703; first compound 0.05 µM): 0.194 | relative viability (NCI-H1703; first compound 0.1581 µM): 0.117 | relative viability (NCI-H1703; first compound 0.5 µM): 0.143 | relative viability (NCI-H23; first compound 0.005 µM): 0.575 | relative viability (NCI-H23; first compound 0.01581 µM): 0.547 | relative viability (NCI-H23; first compound 0.05 µM): 0.373 | relative viability (NCI-H23; first compound 0.1581 µM): 0.195 | relative viability (NCI-H23; first compound 0.5 µM): 0.127

Source: the supplement of paper PMC10307832
